These results are taken from patent US20210161999A1, “COMPOSITIONS AND METHODS RELATED TO OVERCOMING INNATE IMMUNE BARRIERS TO CANCER IMMUNOTHERAPY” (Health Research, Inc., priority 2018, published 2021).

“Also recorded” adds a separate entry of the source. *1 amine or outer side, *2 acyl side, *3 side chain or, on linkers, in order; H or OH if unused. Where a SMILES comes first, the peptide text is derived from it. Bridges are numbered along the chain shown (N, C = ends). Roman numbers before positions name the chains, in order. [ ]: non-standard residue; d: D form. Actinocin(9to1) = Cc1c2oc3c(C)ccc(C(=O)[*:1])c3nc-2c(C(=O)[*:2])c(N)c1=O; NMeV = CN[C@H](C(=O)O)C(C)C; Sar = CNCC(=O)O

This experiment relates to PMN suppressor phenotype (suppression of anti-CD3/CD28-stimulated T cell proliferation). The experiment can be described thus: Coculture of PMN with ascites supernatants and anti-CD3/CD28-stimulated T cells; T cell proliferation by [3H] thymidine incorporation. The settings on record: for effect on ascites-induced PMN-mediated suppression: L-arginine 50 μM-1 mM, NAC 10-25 mM, DNase I 50-100 IU (n=3). The class given is cell-based, human. The procedure:
Freshly isolated T cells (1e5) were stimulated with anti-CD3/CD28 Dynabeads (2.5 μl; Thermo Fisher Scientific) and cocultured with autologous PMN (1:1) and ascites supernatants (50% final well volume) in an incubator at 37° C., 5% CO2. After 72 h, [^3H] thymidine (1 μCi per well) was added and allowed to incorporate for 16-18 h. Cells were harvested onto a Filtermat and counted on a Beta counter. Results are expressed as net cpm [calculated by subtracting the average cpm of unstimulated T cells from the average cpm of stimulated T cells].
Where indicated, T cells, PMN, and ascites supernatants underwent various pretreatments. Where indicated, T cells were pretreated for lh with neutralizing antibody against ICAM-I (1-10 μg), IgG1 isotype (1-10 μg), or media (RPMI 1640, 5-10% heat-inactivated FBS, HEPES, sodium pyruvate, non-essential amino acids, and penicillin-streptomycin).
Where indicated, PMN were pretreated for lh with neutralizing antibody against CD11b (1-10 μg), TGF-beta receptor 1 (1-10 μg) or IgG1 isotype (1-10 μg); thapsigargin (THG, 0.5-2 μM), diphenyleneiodonium (DPI, 1-25 μM), N-Formylmethionine-leucyl-phenylalanine (fMLF, 1-100 nM), brefeldin-A (1-10 μg/mL), ER export inhibitor 1 (Exol, 20-75 μM), CI-amidine (10-20 μM), SNARE decoys: TAT-SNAP23 (0.6-0.9 μg/mL), TAT-SYN4 (0.6-0.9 μg/mL), TAT-GST (0.6-0.9 μg/mL) (produced as described in the laboratory of Dr. Kenneth McLeish), puromycin and actinomycin-D (1-5 μg/mL), or with media.
Where indicated, ascites supernatants were pretreated with heat (56° C., lh) to denature heat-labile constituents or proteinase-K (100 μM, 37° C., 12 h) to degrade proteins. Two formulations of compstatin, a peptide C3 inhibitor, were used: CS (250 μM, 30° C., 2 h, Tocris) and Cp40 (1.25-20 μM, 30° C., 2 h), as well as a scramble peptide. In separate studies, ascites supernatants were ultra-centrifuged (100,000g, 4° C., 1.5 h) to separate the membrane-rich (MR-ASC) and membrane-depleted (MD-ASC) fractions. In others, ascites supernatants were pretreated for lh with neutralizing antibody against C5 (0.5-1.0 μg, A217; Quidel, San Diego, Calif.) or C7 (0.5-1.0 μg, A221; Quidel) or IgG1 isotype (0.5-1.0 μg), or with OmCI (0.6-1.2 μM), a peptide C5 inhibitor derived from the saliva of Ornithodoros moubata (35, 36).

Setting [1] is: added to cocultures, indomethacin 10 μM, zileuton 50 μM, 1-MT 100 μM.
Where [2] appears, read: PMN pretreated, brefeldin-A 1-10 μg/mL, Exo1 20-75 μM (n=3).
The mark [3] stands for this setting: PMN pretreated for 1 h prior to coculture, puromycin 1 μg, D-actinomycin 1 μg (n=8).
The mark [4] stands for this setting: PMN pretreated, fMLF 100 nM, THG 1 μM, DPI 1 μM (n=7).

For the molecule `Cn1cc(CC(N)C(=O)O)c2ccccc21` (racemic) [1-methyl-DL-tryptophan], the “effect on PMN suppressor phenotype” value under setting [1] is listed as “did not reverse the phenotype; also recorded: had no effect on the PMN suppressor phenotype”.

For `NC(=O)[C@H](CCCN=C(N)CCl)NC(=O)c1ccccc1` [CI-amidine], where the note is “PMN pretreated with CI-amidine (10-20 μM) for 1 h prior to coculture (n=3)”, the “effect on PMN suppressor phenotype” value was “did not abrogate the PMN suppressor phenotype; also recorded: had no effect on the PMN suppressor phenotype”.

In the case of `CC[C@H](C)[C@H](N)C(=O)N[C@H]1CSSC[C@@H](C(=O)N[C@H](C(N)=O)[C@@H](C)O)NC(=O)[C@H](CCCN=C(N)N)NC(=O)[C@H](Cc2cnc[nH]2)NC(=O)[C@H](Cc2cnc[nH]2)NC(=O)CNC(=O)[C@H](Cc2c[nH]c3ccccc23)NC(=O)[C@H](CC(=O)O)NC(=O)[C@H](CCC(N)=O)NC(=O)[C@H](C(C)C)NC(=O)[C@H](C(C)C)NC1=O` [CS, compstatin], the “effect on PMN suppressor phenotype” value reads like this: (added to ASC 2 h prior to coculture with PMN and T cells, CS 250 μM, Cp40 20 μM, scramble peptide 20 μM) “abrogated the PMN suppressor phenotype”; (added to ASC 2 h prior to coculture with PMN and T cells, CS 250 μM, Cp40 20 μM, scramble peptide 20 μM, listed as compstatin) “completely abrogated the PMN suppressor phenotype”.

As for `COC(=O)c1ccccc1NC(=O)c1ccc(F)cc1` [ER export inhibitor 1], the “effect on PMN suppressor phenotype” value under setting [2] is reported as “abrogated the suppressor phenotype” and the “effect on PMN suppressor phenotype” value (PMN pretreated, brefeldin-A 1-10 μg/mL, Exo1 20-75 μM (n=3), listed as Exo1) is reported as “abrogated the PMN suppressor phenotype”.

For the molecule `N=C(N)NCCC[C@H](N)C(=O)O` [L-arginine], the “effect on ascites-induced PMN-mediated suppression” value (added to cocultures) was “did not reverse ascites-induced PMN-mediated suppression; also recorded: had no effect on T cell suppression”.

For `CC(=O)N[C@@H](CS)C(=O)O` [N-acetylcysteine], the “effect on ascites-induced PMN-mediated suppression” value (added to cocultures) was “did not reverse ascites-induced PMN-mediated suppression” and the “effect on ascites-induced PMN-mediated suppression” value (added to cocultures, listed as NAC) is reported as “did not reverse suppression”.

As to `Cc1c2oc3c(C)ccc(C(=O)N[C@@H]4C(=O)N[C@H](C(C)C)C(=O)N5CCC[C@H]5C(=O)N(C)CC(=O)N(C)[C@@H](C(C)C)C(=O)O[C@@H]4C)c3nc-2c(C(=O)N[C@@H]2C(=O)N[C@H](C(C)C)C(=O)N3CCC[C@H]3C(=O)N(C)CC(=O)N(C)[C@@H](C(C)C)C(=O)O[C@@H]2C)c(N)c1=O` [actinomycin D] (I: T[dV]P[Sar][NMeV] / II: T[dV]P[Sar][NMeV]; ester I:1-I:C, II:1-II:C; linker I:N-II:N via Actinocin(9to1)), the “effect on PMN suppressor phenotype” value reads like this: under setting [3], “variable abrogation of the suppressor phenotype”; (PMN pretreated for 1 h prior to coculture, puromycin 1 μg, D-actinomycin 1 μg (n=8), listed as D-actinomycin) “had more variable effects”.

On to `C[C@H]1CCC/C=C/[C@@H]2C[C@H](O)C[C@H]2[C@H](O)/C=C/C(=O)O1` [brefeldin-A], for which the “effect on PMN suppressor phenotype” value under setting [2] was “abrogated the PMN suppressor phenotype”.

Take `c1ccc2c(c1)[I+]c1ccccc1-2` [diphenyleneiodonium]: the “effect on PMN suppressor phenotype” value by setting is: under setting [4], “abrogated the PMN suppressor phenotype”; (PMN pretreated, fMLF 100 nM, THG 1 μM, DPI 1 μM (n=7), listed as DPI) “did abrogate the PMN suppressor phenotype”.

On to `COc1ccc2c(c1)c(CC(=O)O)c(C)n2C(=O)c1ccc(Cl)cc1` [indomethacin], for which the “effect on PMN suppressor phenotype” value is, setting by setting: under setting [1], “had no effect on the PMN suppressor phenotype”; (added to cocultures, indomethacin 10 μM, zileuton 50 μM, 1-MT 100 μM, listed as Indomethacin) “did not reverse the phenotype”.

`COc1ccc(C[C@H](N)C(=O)N[C@H]2[C@@H](O)[C@H](n3cnc4c(N(C)C)ncnc43)O[C@@H]2CO)cc1` [puromycin]: the “effect on PMN suppressor phenotype” value under setting [3] is on record as “abrogated the PMN suppressor phenotype; also recorded: variable abrogation of the suppressor phenotype”.

`C/C=C(/C)C(=O)O[C@H]1C(C)=C2[C@H]([C@@H]1OC(=O)CCCCCCC)[C@@](C)(OC(C)=O)C[C@H](OC(=O)CCC)[C@@]1(O)[C@H]2OC(=O)[C@@]1(C)O` [thapsigargin]: under setting [4], the “effect on PMN suppressor phenotype” value was “abrogated the PMN suppressor phenotype”.

Turning to `CC(c1cc2ccccc2s1)N(O)C(N)=O` (stereo not shown) [zileuton], the “effect on PMN suppressor phenotype” value under setting [1] is given as “did not reverse the phenotype; also recorded: had no effect on the PMN suppressor phenotype”.

Consider “N-Formylmethionine-leucyl-phenylalanine [fMLF]”, for which, under setting [4], the “effect on PMN suppressor phenotype” value is “abrogated the PMN suppressor phenotype; also recorded: prevented induction of the PMN suppressor phenotype”.

B1: DNase I: enzyme added to the cocultures to degrade NETs (protein, UniProt P24855 23-282, looked up)
Deoxyribonuclease-1: LKIAAFNIQTFGETKMSNATLVSYIVQILSRYDIALVQEVRDSHLTAVGKLLDNLNQDAPDTYHYVVSEPLGRNSYKERYLFVYRPDQVSAVDSYYYDDGCEPCGNDTFNREPAIVRFFSRFTEVREFAIVPLHAAPGDAVAEIDALYDVYLDVQEKWGLEDVMLMGDFNAGCSYVRPSQWSSIRLWTSPTFQWLIPDSADTTATPTHCAYDRIVVAGMLLRGAVVPDSALPFNFQAAYGLSDQLAQAISDHYPVEVMLK
For the molecule B1, where the note is “added to cocultures”, the “effect on ascites-induced PMN-mediated suppression” value was “did not reverse ascites-induced PMN-mediated suppression; also recorded: had no effect on the PMN suppressor phenotype”.

B2: OmCI: peptide C5 inhibitor derived from the saliva of Ornithodoros moubata (protein, UniProt Q5YD59 19-168, looked up)
Complement inhibitor: DSESDCTGSEPVDAFQAFSEGKEAYVLVRSTDPKARDCLKGEPAGEKQDNTLPVMMTFKNGTDWASTDWTFTLDGAKVTATLGNLTQNREVVYDSQSHHCHVDKVEKEVPDYEMWMLDAGGLEVEVECCRQKLEELASGRNQMYPHLKDC
On to B2, for which, for the setting “ASC pretreated 1 h with neutralizing Ab against C5 or C7 (0.5-1.0 μg) or OmCI (0.6-1.2 μM) prior to coculture”, the “effect on PMN suppressor phenotype” value is recorded as “partially abrogated the PMN suppressor phenotype; also recorded: had a partial abrogating effect on T cell suppression”.
